US12569515B2, “Gold-containing agents for the treatment of lung infections” (Aurovir Pharma GmbH, priority 2020, dated 2026)
pIC50: −log10 of the molar value.

Experiments:
[1] = biological target: SARS-CoV-2 spike protein / ACE2 receptor interaction (Severe acute respiratory syndrome coronavirus 2, UniProt P0DTC2); assay: Inhibition of the spike/ACE2 interaction by ELISA; type: binding
CaLu-3 cells = assay: Cytotoxicity in CaLu-3 cells (crystal violet, 24 hours); type: cell-based; conditions: for Cytotoxicity in CaLu-3 cells: concentrations of up to 100 μM, combinations with respect to AM or AG
Procedure: In order to determine the cytotoxicity, CaLu-3 cells were cultured in 96-well microtitre plates. The cell culture medium was replaced with fresh medium which contained the gold compounds in concentrations of 25, 50 or 100 μM and incubated for 24 hours at 37° C./5% CO2. Next, the remaining cells were photometrically determined using crystal violet stain (Victor X4 microplate reader). The quantity of cells in the treated samples was calculated as a percentage with respect to an untreated control.

[2] = biological target: SARS-CoV-2 3CL protease (Mpro) (Severe acute respiratory syndrome coronavirus 2, UniProt P0DTD1); assay: Inhibition of SARS-CoV-2 protease 3CLpro; type: biochemical; conditions: 1 h preincubation at 37° C.
Procedure: 50 μL of the test substance solutions or pure HEPES buffer (positive control) was respectively added thereto and the resulting solutions were mixed and incubated for one hour at 37° C.

SARS-CoV-2 PLpro [3] = biological target: T1, SARS-CoV-2 PLpro (Severe acute respiratory syndrome coronavirus 2, UniProt P0DTD1); assay: Inhibition of SARS-CoV-2 protease PLpro (fluorogenic substrate Z-Arg-Leu-Arg-Gly-Gly-AMC); type: biochemical; conditions: 1 h preincubation at 37° C.; for the mixture with respect to the quantity of aurothioglucose
T1 construct: SARS-CoV-2 protease Papain-Like Protease (PLpro)

[4] = tested on: bovine coronavirus (BCoV); type: cell-based
SARS-CoV-2 PLpro [5] = biological target: T1, SARS-CoV-2 PLpro; assay: Removal of zinc from PLpro (FluoZin-3 fluorescence); type: biochemical; conditions: 50 μM test compound, 500 nM PLpro, up to 90 minutes (FIG. 10)
Procedure: In addition to a cysteine in the catalytic centre of the enzyme, the protease Plpro contains further cysteines in a zinc binding domain which stabilise the structure and function of the enzyme. The removal of the bound zinc constitutes an interesting mechanism for the action of inhibitors for PLpro.
In order to establish whether the inhibitors are Zn-removing agents, the presence of the Zn^2+ cation in solution was determined as follows. The inhibitor compounds were prepared as stock solutions in DMSO, as stock solutions in water or DMSO and diluted one hundred-fold with HEPES buffer ([…], pH 7.5) to 100 μM concentrations. Volumes of 50 μL of SARSCoV-2 PLpro (Elabscience) in HEPES buffer or blank HEPES buffer (control for false positive results) were placed in the wells of a black 96-well microtitre plate (Nunclon, Nunc). Volumes of 50 μL of the inhibitor solutions or 1% DMSO in HEPES buffer (control) were added. […] The resulting solutions were mixed and the fluorescence emission was determined after 10 min, every 10 min over a period of 90 minutes, at 37° C. (λexc=485 nm, λem=535 nm); Victor X4 microtitre plate reader). The relative fluorescence was calculated by dividing the absolute fluorescence emission of the well which contained the inhibitor by the absolute fluorescence of the corresponding well which contained the enzyme but no inhibitor (control). […]

[6] = tested on: mouse model for acute allergic asthma; assay: Anti-inflammatory action in a mouse model for acute allergic asthma, intranasal application

CC(=O)N[C@@H](CS)C(=O)O [N-acetylcysteine]
remaining activity at 100 µM ([1]; 100 μM, N-acetylcysteine alone, read-out: Spike/ACE2 interaction remaining, % of control): 97%

CC(=O)OC[C@H]1O[C@@H]([S-])[C@H](OC(C)=O)[C@@H](OC(C)=O)[C@@H]1OC(C)=O.CCP(CC)CC.[Au+] [auranofin]
Quantity of cells, % of the untreated control (CaLu-3 cells; 25 μM, CaLu-3 cells): < 20 % of the untreated control

OC[C@H]1O[C@H]([S-])[C@H](O)[C@@H](O)[C@@H]1O.[Au+] [aurothioglucose]
Affinity for the spike protein of SARS-CoV-2 virus [1]: high affinity | Inhibition of the spike/ACE2 interaction ([1]; 20 μM aurothioglucose (FIG. 8)): resulted in an inhibition | pIC50 [2]: 5.08 | pIC50 (SARS-CoV-2 PLpro [3]): 5.15 | Reduction in the viral load ([4]; 256 μM aurothioglucose, preincubated 1 h with 100 TCID50 BCoV, MDBK cells, 12-48 hours): 10 fold | Removal of zinc from PLpro (SARS-CoV-2 PLpro [5]): comparable with the reference compound disulfiram | Cytotoxicity in CaLu-3 cells (CaLu-3 cells): no relevant cytotoxicity

O=C(O)CC([S-])C(=O)O.[Au+] (centres unmarked) [aurothiomalate]
pIC50 [2]: 4.64 | pIC50 (SARS-CoV-2 PLpro [3]): 6.22 | Cytotoxicity in CaLu-3 cells (CaLu-3 cells): no relevant cytotoxicity

NC(=O)c1nc(F)c[nH]c1=O [favipiravir]
Viral load formed on adding favipiravir [4]: reduction in the viral load

auroacetylcysteine
Total inflammatory cells in bronchial secretions, extent of respiratory tract inflammation, eosinophils and neutrophiles, inflammatory infiltrates in lung parenchyma ([6]; 10 mg/kg over 5 days): reduced | Inflammatory parameters peribronchially and in the parenchyma ([6]; 10 mg/kg, histology): reduced | Deaths in treatment group ([6]; AAC group, 5 mice): one death | Eosinophilic and neutrophilic granulocytes and lymphocytes ([6]; cell populations (FIG. 5)): reduced | Macrophages ([6]; cell populations (FIG. 5)): increased compared with dexamethasone | Total cell count in bronchoalveolar lavage ([6]; intranasal, compared with placebo and dexamethasone 1 mg/kg (FIG. 2)): comparable with dexamethasone | Anti-inflammatory effect in the tissue ([6]; versus dexamethasone 1 mg/kg): comparable with that of dexamethasone
